“Also recorded” adds a separate entry of the source.
Columns and labels:
[1] = Stability of the solid placed open in the air under illumination, heating and humidity, HPLC analysis; format: physicochemical; details: for HPLC analysis result, 60° C.: heating 60° C.; for HPLC analysis result, RH 90%: humidity RH 90%; for HPLC analysis result, Light: illumination 4500 Lux
Protocol: The form I crystal of SHR1258 dimaleate prepared in Example 1 and the amorphous form of SHR1258 dimaleate prepared in Example 2 were placed open in the air to test the stability in various conditions including illumination (4500 Lux), heating (60° C.), and humidity (RH 90%).

[2] = Crystal form stability after grinding, heating and pressing, evaluated by X-ray diffraction and DSC; format: physicochemical; details: for Stability under grinding, pressure and heating: grinded, heated and pressed, X-ray diffraction and DSC
Text: The form I crystal of SHR1258 dimaleate prepared in Example 1 was grinded, heated and pressed, then evaluated by X-ray diffraction and DSC patterns.

Compound	HPLC analysis result, 60° C. ([1]; day 0)	HPLC analysis result, 60° C. ([1]; day 5)	HPLC analysis result, 60° C. ([1]; day 10)	HPLC analysis result, RH 90% ([1]; day 0)	HPLC analysis result, RH 90% ([1]; day 5)	HPLC analysis result, RH 90% ([1]; day 10)	Stability under illumination, form I crystal compared with amorphous form [1]	HPLC analysis result, Light ([1]; day 0)	HPLC analysis result, Light ([1]; day 5)	HPLC analysis result, Light ([1]; day 10)	Stability under grinding, pressure and heating [2]	Stability under grinding, pressure and heating ([2]; listed as form I crystal of SHR1258 dimaleate)	Crystal (form after process) ([2]; grinding for 10 min under nitrogen atmosphere)	Crystal (form after process) ([2]; heating at 80° C. for 3 hours)	Crystal (form after process) ([2]; pressing into pieces)	Stability under high temperature and high moisture, compared with amorphous form ([1]; high temperature and high humidity, listed as form I crystal of SHR1258 dimaleate)
CCOc1cc2ncc(C#N)c(Nc3ccc(OCc4ccccn4)c(Cl)c3)c2cc1NC(=O)/C=C/[C@H]1CCCN1C [Amorphous Form]	98.41%	95.24%	93.71%	98.41%	96.95%	96.31%	similar	98.41%	96.96%	96.91%	–	–	–	–	–	–
CCOc1cc2ncc(C#N)c(Nc3ccc(OCc4ccccn4)c(Cl)c3)c2cc1NC(=O)/C=C/[C@H]1CCCN1C [Form I Crystal, (R, E)-N-(4-(3-chloro-4-(pyridin-2-yl-methoxy)phenylamino)-3-cyano-7-ethoxyquinolin-6-yl)-3-(1-methylpyrrolidino-2-yl)acrylamide dimaleate]	99.65%	98.13%	96.86%	99.65%	98.35%	98.35%	similar	99.65%	98.20%	97.91%	good stability	stable	Form I	Form I	Form I	significantly better than the amorphous form; also recorded: more stable
